Measurements: patent publication US20180353512A1, “COMBINATION THERAPIES FOR TREATING B-CELL MALIGNANCIES” (GILEAD SCIENCES, INC., priority 2015, published 2018)
Where two headings read alike, the source gives them in different places.

Tests used:
Type in all cases: cell-based
[1] = test system: TMD8; assay: CellTiter-Glo viability assay at 96 h (Example 5); details: Homo sapiens
Description: (§1) Growth inhibition to Idelalisib or other inhibitors was assessed using CellTiter-Glo viability assay at 96 h. […] Cell lines were analyzed by whole exome sequencing, RNASeq, and phosphoproteomics. Protein expression was measured using Simple Western and SDS/PAGE and western blot. Caspase 3/7 was measured using Caspase-Glo 3/7 assay; apoptosis was measured with Annexin V assay and propidium iodide by flow cytometry.
(§2) Cell viability EC50 was determined using a sigmoidal dose-response (variable slope) curve generated from quadruplicate samples. Statistical significance was determined using the student's t-test for cell viability and two-tailed paired t-test for apoptosis experiments in Prism (GraphPad).

[2] = test system: FSCCL (WSU-FSCCL); assay: CellTiter Glo viability assay after 96 h; details: read-out: EC50, cell viability
Description: (§3) Idelalisib resistance was established by continuous passaging of a clonal isolate of WSU-FSCCL in the presence of 1 μM idelalisib; clonal isolates from a passage-matched line (FSCCL^S) and idelalisib-resistant line (FSCCL^R) were generated through 2 rounds of single-cell-limiting dilution. Growth inhibition to idelalisib or other inhibitors was performed after 96 h using CellTiter Glo viability assay. Characterization of mutations and gene expression were identified by whole exome sequencing and RNA-Seq, respectively. Whole cell lysates were analyzed by western blots.

[3] = test system: FSCCL^R clone 2 (PI3KCA N345K); assay: CellTiter Glo viability assay after 96 h
Description: as §3

[4] = test system: FSCCL^R clone 3 (PI3KCA P539R); assay: CellTiter Glo viability assay after 96 h
Description: as §3

[5] = test system: FSCCL^R clone 1 (PI3KCA E970K); assay: CellTiter Glo viability assay after 96 h
Description: as §3

[6] = test system: FSCCL^S; assay: CellTiter Glo viability assay after 96 h; details: read-out: EC50
Description: as §3

[7] = test system: FSCCL^R SFK^HIGH; assay: CellTiter Glo viability assay after 96 h
Description: as §3

[8] = test system: TMD8^S (DMSO passage matched, idelalisib-sensitive line); assay: CellTiter-Glo viability assay at 96 h; details: read-out: EC50, cell viability
Description: as §1, §2
(§4) Idelalisib-resistant (TMD8^R) cell line and passage-matched Idelalisib-sensitive (TMD8^S) cell line were generated according to the procedure described in Example 5 above. To characterize the resistant cells, cell viability assays, RNASeq of multidrug resistance (MDR) family of ABC transporter genes (N=33), apoptosis assays, and phosphoprotein analysis were performed. Cell viability was measured using CellTiter-Glo, as described in Example 1A above. Western blot and protein level analysis were performed after treatment with 420 nM idelalisib, 320 nM Compound B and combination thereof, using Peggy Sue (ProteinSimple) automated Western Blot system. Protein concentration (pg/μL) was quantitated using recombinant protein standards. Normalized AUC were determined for each of the treatment groups, normalized to actin. Apoptosis was assessed by propidium iodide and Annexin V/FITC staining and measured by flow cytometry, as described in Example 1A above. Western Blot with anti-p-AKT (S473) antibody and Peggy Sue were used to determine the phosphorylation state of downstream signaling components.

[9] = test system: TMD8^R (Idelalisib-resistant line); assay: CellTiter-Glo viability assay at 96 h; details: read-out: EC50, cell viability
Description: as §1, §2, §4

[10] = test system: TMD8^R cells; assay: Apoptosis, Annexin V assay and propidium iodide by flow cytometry; details: Annexin V at 48 h, Idelalisib=1 μM
Description: as §1

[11] = test system: OCI-LY10 cells; assay: CellTiter-Glo cell viability assay, four days (Example 1A); details: OCI-LY10; single agent
Description: (§5) In vitro anti-proliferative activity of agents was assessed using CellTiter-Glo™ Assay (Promega), which quantifies cellular ATP level. Test compounds were dissolved in DMSO to prepare 10 mM stock solutions. […] For drug combination studies, a two or three fold horizontal serial dilution pattern was used for Compound B and combined with Idelalisib using a two, three, or four fold vertical serial dilution pattern. […] The final DMSO concentration in the test media was 0.2%. Each combination used replicates of four plates to generate sufficient data for evaluation of synergy scores. […] The assay growth medium for all lines was RPMI supplemented with 20% FBS and […] penicillin-streptomycin. Seeding density was optimized for growth rate over 96 hours for each cell line and was between 10,000-30,000 cells per well of 96 well plates. After four days incubation with agents at 37° C./5% CO2, the CellTiter-Glo™ assay was performed following the manufacturer's protocol. Relative luminescence units were quantified using a Biotek Synergy luminometer.
(§6) Data from a plate was excluded if either Z′<0.5 or the growth of the cell lines was less than one doubling in the four day assay period. Z′ was calculated using the formula: Z′=[1−((3(σstau+σDMSO))/(|μDMSO−μstau|)] where σstau and σDMSO are the standard deviation of the 100% inhibited staurosporine and 0% inhibited DMSO control wells, respectively. μDMSO and μstau are the mean of the […] control wells, respectively. The raw Cell Titer Glo signal was normalized according to the following formula: [(raw value)−(100% inhibited staurosporine control)]/[(DMSO control value)−(100% inhibited staurosporine control)].
(§7) EC50 was determined using GraphPad Prism or Dose Response software by fitting the data to a four parameters variable slope model. […] For combination studies, the EC50 at each test article concentration was determined from graphs of the EC50 of one compound at a fixed dose of second compound. The EC50 shift was calculated by taking the ratio of the EC50 of the single agent by the EC50 at the maximum dose of the second agent.
(§8) Synergy was analyzed using the MacSynergy II program, which calculates a theoretical additive value for the drug combination that is based on the values generated by each drug alone using the Bliss Independence mathematical model. The Bliss independence model assumes that each drug acts independently. The theoretical additive effect for each compound is calculated and then subtracted from the actual effect. Synergy is defined by greater than expected effects while antagonism is defined by less than expected effects. In this example, a synergy volume greater than 50 was considered significant. The EC50 values determined in drug combination studies represent a single experiment run in quadruplicate and therefore may differ slightly from the single agent EC50 values.

[12] = test system: TMD-8 cells; assay: as above; details: TMD-8; single agent
Description: as §5, §6, §7, §8

[13] = test system: Ri-1 cells; assay: as above; details: Ri-1; single agent
Description: as §5, §6, §7, §8

[14] = read-out: EC50 BYL-719 (+IDELA 0.6 μm)
[15] = FIGS. 11A, 13A, printed with 1 μM of each named agent

Cc1cc([C@@H](C)Nc2ccccc2C(=O)O)c2nc(N3CCOCC3)cc(=O)n2c1 [AZD-6482]
EC50 [1]: 520 nM
EC50 [2]: 4600 nM

Cc1nc(NC(=O)N2CCC[C@H]2C(N)=O)sc1-c1ccnc(C(C)(C)C(F)(F)F)c1 [BYL-719]
EC50 [1]: 1200 nM
EC50 [3, 14]: 143 nM
EC50 ([3]; single agent, read-out: EC50): 1540 nM
EC50 [4, 14]: 239 nM
EC50 ([4]; single agent, read-out: EC50): > 3000 nM
EC50 [5, 14]: 123 nM
EC50 ([5]; single agent, read-out: EC50): 2120 nM
EC50 ([6]; PI3KCA WT, Table 13, single agent): 1610 nM
EC50 [2]: > 10000 nM

Cc1nc(Nc2ncc(C(=O)Nc3c(C)cccc3Cl)s2)cc(N2CCN(CCO)CC2)n1 [Dasatinib]
EC50 ([7]; read-out: EC50 Dasatinib (+IDELA 600 nM)): 15 nM
EC50 ([7]; single agent, read-out: EC50 Dasatinib): 58 nM
EC50 ([6]; Table 14, single agent): 34 nM

C[C@H](Nc1nc[nH]c2ncnc1-2)c1cc2cccc(Cl)c2c(=O)n1-c1ccccc1 [Duvelisib, 8-Chloro-2-phenyl-3-[(1S)-1-(3H-purin-6-ylamino)ethyl]-1(2H)-isoquinolinone]
EC50 ([8]; single agent): 580 nM
EC50 ([9]; TMD8^R, single agent): > 4000 nM

c1cn2cc(-c3ccc4cn[nH]c4c3)nc(Nc3ccc(N4CCOCC4)cc3)c2n1 [ENTO]
EC50 ([7]; read-out: EC50 ENTO (+IDELA 600 nM)): 1920 nM
EC50 ([6]; Table 15, single agent): 1800 nM

CS(=O)(=O)N1CCN(Cc2cc3nc(-c4cccc5[nH]ncc45)nc(N4CCOCC4)c3s2)CC1 [GDC-0941]
EC50 [1]: 27 nM

CNc1nc(-c2ccc3c(N)n[nH]c3c2)cc(N2C[C@@H](C(=O)NC3CCCCC3)CC[C@H]2C)n1 [GSK-2334470]
EC50 [9, 15]: < 10000 nM
apoptosis ([10]; GSK-2334470=1 μM, vehicle control 22%): 21%

C=CC(=O)N1CCC[C@@H](n2nc(-c3ccc(Oc4ccccc4)cc3)c3c(N)ncnc32)C1 [Ibrutinib, 1-[(3R)-3-[4-Amino-3-(4-phenoxyphenyl)-1H-pyrazolo[3,4-d]pyrimidin-1-yl]piperidin-1-yl]prop-2-en-1-one]
EC50 ([8]; unit inferred): 0.5 nM
growth of cell line [11]: inhibited the growth
growth of cell line [12]: inhibited the growth
growth of cell line [13]: inhibited the growth

NC1(c2ccc(-c3nc4ccn5c(=O)[nH]nc5c4cc3-c3ccccc3)cc2)CCC1 [MK-2206]
EC50 [9, 15]: < 10000 nM
apoptosis ([10]; MK-2206=1 μM, vehicle control 24%): 33%
